Assay [1] has as its system antibodies in sera from SARS patients (sera 1a, 1b, 2, 6, 37, 62, London, SARS-yellow, SARS-green). Format: binding, human. On the set-up: Binding of serum 6 to linear peptides of protein X1 of SARS-CoV Urbani / Binding of serum 37 to linear peptides of protein X1 of SARS-CoV Urbani / Binding of serum 6 to looped/cyclic peptide (PEPSCAN-ELISA) / Binding of serum 37 to looped/cyclic peptide (PEPSCAN-ELISA) / Binding of serum 37 to looped/cyclic peptides of protein X1 of SARS-CoV Urbani / Binding of serum 6 to linear peptides of protein X2 / Binding of serum 37 to linear peptides of protein X2 / Binding of serum 37 to looped/cyclic peptides of protein X2 of SARS-CoV Urbani / Binding of serum 6 to linear peptides of protein M of SARS-CoV Urbani / Binding of serum 37 to linear peptides of protein M of SARS-CoV Urbani / Binding of serum 6 to looped/cyclic peptides of protein M of SARS-CoV Urbani / Binding of serum 37 to looped/cyclic peptides of protein M of SARS-CoV Urbani / Binding of serum 6 to linear peptides of protein X3 of SARS-CoV Urbani / Binding of serum 37 to linear peptides of protein X3 of SARS-CoV Urbani / Binding of serum 37 to looped/cyclic peptides of protein X3 of SARS-CoV Urbani / Binding of serum 6 to linear peptides of protein X4 of SARS-CoV Urbani / Binding of serum 37 to linear peptides of protein X4 of SARS-CoV Urbani / Binding of serum 37 to looped/cyclic peptides of protein X4 of SARS-CoV Urbani / Binding of serum 6 to linear peptides of protein X5 of SARS-CoV Urbani / Binding of serum 37 to linear peptides of protein X5 of SARS-CoV Urbani / Binding of serum 37 to looped/cyclic peptides of protein X5 of SARS-CoV Urbani / Binding of serum 6 to linear peptides of protein N of SARS-CoV Urbani / Binding of serum 37 to linear peptides of protein N of SARS-CoV Urbani / Binding of serum 6 to linear peptide (PEPSCAN-ELISA) / Binding of serum 1a to looped/cyclic peptides of protein N of SARS-CoV Urbani / Binding of serum 1b to looped/cyclic peptides of protein N of SARS-CoV Urbani / Binding of serum 2 to looped/cyclic peptides of protein N of SARS-CoV Urbani / Binding of serum 6 to looped/cyclic peptides of protein N of SARS-CoV Urbani / Binding of serum 37 to looped/cyclic peptides of protein N of SARS-CoV Urbani / Binding of serum 62 to looped/cyclic peptides of protein N of SARS-CoV Urbani / Binding of serum London to looped/cyclic peptides of protein N of SARS-CoV Urbani / Binding of serum SARS-green to looped/cyclic peptides of protein N of SARS-CoV Urbani: unit not given here.

The test system of assay [2] is control sera (pooled serum of ten healthy LUMC hospital workers; commercial negative donor pooled serum from the Dutch bloodbank). In kind it is binding, human.
Assay [3] concerns rabbit serum obtained by immunizing a rabbit with the SARS-CoV strain Frankfurt 1. Format: binding. On the set-up: Binding of a rabbit serum to linear peptides / Binding of a rabbit serum to looped peptides / Rabbit serum linear peptides / Rabbit serum looped peptides / Binding of a rabbit serum to linear peptides of protein N of SARS-CoV Urbani (Rabbit serum linear peptides) / Binding of a rabbit serum to looped/cyclic peptides of protein N of SARS-CoV Urbani (Rabbit serum looped peptides): unit not given here.

Take IQFMMSRRRLLACLC: in assay [1], the “Binding of serum 1a to linear peptides of protein X2” value was 0.7, the “Binding of serum 1a to looped/cyclic peptides of protein X2 of SARS-CoV Urbani” value came to 0.4, the “Binding of serum 1b to linear peptides of protein X2” value came out at 0.5 and the “Binding of serum 1b to looped/cyclic peptides of protein X2 of SARS-CoV Urbani” value is recorded as 0.2. Moreover, in assay [1], the “Binding of serum 2 to linear peptides of protein X2” value was determined as 0.4, the “Binding of serum 2 to looped/cyclic peptides of protein X2 of SARS-CoV Urbani” value was found to be 0.5, the “Binding of serum 6 to linear peptides of protein X2” value is given as 0.6 and the “Binding of serum 6 to looped/cyclic peptides of protein X2 of SARS-CoV Urbani” value is 0.3. Besides, in assay [1], the “Binding of serum 37 to linear peptides of protein X2” value amounted to 0.6, the “Binding of serum 37 to looped/cyclic peptides of protein X2 of SARS-CoV Urbani” value was 0.2, the “Binding of serum 62 to linear peptides of protein X2” value worked out at 0.7 and the “Binding of serum 62 to looped/cyclic peptides of protein X2 of SARS-CoV Urbani” value was determined as 0.3. Further, in assay [1], the “Binding of serum London to linear peptides of protein X2” value amounted to 0.5, the “Binding of serum London to looped/cyclic peptides of protein X2 of SARS-CoV Urbani” value is reported as 0.4, the “Binding of serum SARS-green to linear peptides of protein X2” value is reported as 0.6 and the “Binding of serum SARS-green to looped/cyclic peptides of protein X2 of SARS-CoV Urbani” value is given as 0.2. Further, in assay [1], the “Binding of serum SARS-yellow to linear peptides of protein X2” value was 0.8 and the “Binding of serum SARS-yellow to looped/cyclic peptides of protein X2 of SARS-CoV Urbani” value is 0.5. Also, in assay [2], the “Binding of Control Serum Blood-Bank to Looped peptides” value came out at 0.3, the “Binding of Control serum Blood-bank to linear peptides” value amounted to 0.8, the “Binding of Control serum LUMC to linear peptides” value is given as 0.6 and the “Binding of Control serum LUMC to looped peptides” value came to 0.4. Also, in assay [3], the “Binding of a rabbit serum to linear peptides” value amounted to 0.5 and the “Binding of a rabbit serum to looped peptides” value is reported as 1.1.
Regarding IQLSLLKVTAFQHQN, in assay [1], the “Binding of serum 1a to linear peptides of protein X2” value stood at 0.5, the “Binding of serum 1a to looped/cyclic peptides of protein X2 of SARS-CoV Urbani” value worked out at 0.5, the “Binding of serum 1b to linear peptides of protein X2” value came out at 0.4 and the “Binding of serum 1b to looped/cyclic peptides of protein X2 of SARS-CoV Urbani” value came out at 0.6. In assay [1], the “Binding of serum 2 to linear peptides of protein X2” value was determined as 0.4, the “Binding of serum 2 to looped/cyclic peptides of protein X2 of SARS-CoV Urbani” value came to 0.3, the “Binding of serum 6 to linear peptides of protein X2” value stood at 0.5 and the “Binding of serum 6 to looped/cyclic peptides of protein X2 of SARS-CoV Urbani” value is on record as 0.4. In assay [1], the “Binding of serum 37 to linear peptides of protein X2” value is 0.6, the “Binding of serum 37 to looped/cyclic peptides of protein X2 of SARS-CoV Urbani” value is reported as 0.4, the “Binding of serum 62 to linear peptides of protein X2” value is 0.3 and the “Binding of serum 62 to looped/cyclic peptides of protein X2 of SARS-CoV Urbani” value is recorded as 0.6. Also, in assay [1], the “Binding of serum London to linear peptides of protein X2” value is given as 0.3, the “Binding of serum London to looped/cyclic peptides of protein X2 of SARS-CoV Urbani” value was determined as 0.2, the “Binding of serum SARS-green to linear peptides of protein X2” value was determined as 0.2 and the “Binding of serum SARS-green to looped/cyclic peptides of protein X2 of SARS-CoV Urbani” value was determined as 0.2. Further, in assay [1], the “Binding of serum SARS-yellow to linear peptides of protein X2” value is on record as 0.3 and the “Binding of serum SARS-yellow to looped/cyclic peptides of protein X2 of SARS-CoV Urbani” value is 0.5. In assay [2], the “Binding of Control Serum Blood-Bank to Looped peptides” value worked out at 0.6, the “Binding of Control serum Blood-bank to linear peptides” value came out at 0.4, the “Binding of Control serum LUMC to linear peptides” value came to 0.7 and the “Binding of Control serum LUMC to looped peptides” value was determined as 0.6. Moreover, in assay [3], the “Binding of a rabbit serum to linear peptides” value was 0.6 and the “Binding of a rabbit serum to looped peptides” value is given as 0.5.
ISPKFTTSLSLHKLL: in assay [1], the “Binding of serum 1a to linear peptides of protein X2” value turned out to be 0.5, the “Binding of serum 1a to looped/cyclic peptides of protein X2 of SARS-CoV Urbani” value came to 0.5, the “Binding of serum 1b to linear peptides of protein X2” value came out at 0.4 and the “Binding of serum 1b to looped/cyclic peptides of protein X2 of SARS-CoV Urbani” value was determined as 0.5. Also, in assay [1], the “Binding of serum 2 to linear peptides of protein X2” value came to 0.4, the “Binding of serum 2 to looped/cyclic peptides of protein X2 of SARS-CoV Urbani” value came to 0.4, the “Binding of serum 6 to linear peptides of protein X2” value was found to be 0.5 and the “Binding of serum 6 to looped/cyclic peptides of protein X2 of SARS-CoV Urbani” value is listed as 0.4. In assay [1], the “Binding of serum 37 to linear peptides of protein X2” value is reported as 0.5, the “Binding of serum 37 to looped/cyclic peptides of protein X2 of SARS-CoV Urbani” value was determined as 0.4, the “Binding of serum 62 to linear peptides of protein X2” value stood at 0.6 and the “Binding of serum 62 to looped/cyclic peptides of protein X2 of SARS-CoV Urbani” value stood at 0.7. Further, in assay [1], the “Binding of serum London to linear peptides of protein X2” value came out at 0.4, the “Binding of serum London to looped/cyclic peptides of protein X2 of SARS-CoV Urbani” value came out at 0.3, the “Binding of serum SARS-green to linear peptides of protein X2” value amounted to 0.5 and the “Binding of serum SARS-green to looped/cyclic peptides of protein X2 of SARS-CoV Urbani” value was 0.2. In assay [1], the “Binding of serum SARS-yellow to linear peptides of protein X2” value is reported as 0.4 and the “Binding of serum SARS-yellow to looped/cyclic peptides of protein X2 of SARS-CoV Urbani” value is 0.3. Also, in assay [2], the “Binding of Control Serum Blood-Bank to Looped peptides” value is given as 0.7, the “Binding of Control serum Blood-bank to linear peptides” value was 0.7, the “Binding of Control serum LUMC to linear peptides” value was found to be 0.3 and the “Binding of Control serum LUMC to looped peptides” value amounted to 0.5. Also, in assay [3], the “Binding of a rabbit serum to linear peptides” value is 0.3 and the “Binding of a rabbit serum to looped peptides” value came out at 0.4.
ITMTTVYHITVSQIQ: in assay [1], the “Binding of serum 1a to linear peptides of protein X2” value amounted to 0.7, the “Binding of serum 1a to looped/cyclic peptides of protein X2 of SARS-CoV Urbani” value was 0.4, the “Binding of serum 1b to linear peptides of protein X2” value is on record as 0.2 and the “Binding of serum 1b to looped/cyclic peptides of protein X2 of SARS-CoV Urbani” value worked out at 0.5. Further, in assay [1], the “Binding of serum 2 to linear peptides of protein X2” value was 0.3, the “Binding of serum 2 to looped/cyclic peptides of protein X2 of SARS-CoV Urbani” value came out at 0.2, the “Binding of serum 6 to linear peptides of protein X2” value turned out to be 0.5 and the “Binding of serum 6 to looped/cyclic peptides of protein X2 of SARS-CoV Urbani” value turned out to be 0.2. In assay [1], the “Binding of serum 37 to linear peptides of protein X2” value is reported as 0.7, the “Binding of serum 37 to looped/cyclic peptides of protein X2 of SARS-CoV Urbani” value is listed as 0.4, the “Binding of serum 62 to linear peptides of protein X2” value came out at 0.4 and the “Binding of serum 62 to looped/cyclic peptides of protein X2 of SARS-CoV Urbani” value was determined as 0.5. Also, in assay [1], the “Binding of serum London to linear peptides of protein X2” value was determined as 0.5, the “Binding of serum London to looped/cyclic peptides of protein X2 of SARS-CoV Urbani” value came out at 0.2, the “Binding of serum SARS-green to linear peptides of protein X2” value worked out at 0.2 and the “Binding of serum SARS-green to looped/cyclic peptides of protein X2 of SARS-CoV Urbani” value amounted to 0.3. In assay [1], the “Binding of serum SARS-yellow to linear peptides of protein X2” value turned out to be 0.0 and the “Binding of serum SARS-yellow to looped/cyclic peptides of protein X2 of SARS-CoV Urbani” value was 0.3. In assay [2], the “Binding of Control Serum Blood-Bank to Looped peptides” value is 0.5, the “Binding of Control serum Blood-bank to linear peptides” value is given as 0.4, the “Binding of Control serum LUMC to linear peptides” value is given as 0.4 and the “Binding of Control serum LUMC to looped peptides” value was 0.5. For the same sequence, in assay [3], the “Binding of a rabbit serum to linear peptides” value is reported as 0.3 and the “Binding of a rabbit serum to looped peptides” value amounted to 0.3.

These data come from US20070128217A1 (priority 2003, published 2007).
